Read-outs that look alike come from different tables or passages of the source.
What was measured:
A375-NRAS^Q61K cells = experiment: CTGlo Cell Viability Assay, A375-NRAS^Q61K (A375.11) cells, 96 hours; type: cell-based, human; settings: A375.11 (A375-NRAS^Q61K) cells; for Emax / CTGlo A375.11 96 hours Emax: lowest % viability achieved
Outline: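 A375 cells carrying BRAF V600E and NRAS Q61K were seeded at 250 cells/well with a 10-point half-log dose series (max 10 μM final). After 96 h at 37 °C, viability was read as ATP luminescence (CellTiter-Glo), background-subtracted and normalized to DMSO (100%). GI50 from 4-parameter fit; Emax is the lowest % viability.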

BRAF V600E = biological target: T1, BRAF V600E (Homo sapiens, UniProt P15056+Q96SW2, V600E); experiment: BRAF V600E HiBiT Degradation Assay; type: cell-based
T1 construct: knock-in of the HiBiT tag to the endogenous BRAF V600E locus; host or cells: A375.10 (A375 clonal line, CRISPR HiBiT knock-in at the endogenous BRAF V600E locus)
Outline: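 Endogenous HiBiT knock-in on BRAF V600E in A375 cells (clone A375.10); 11-point half-log series, top 10 μM, 2, 6 or 24 h at 37° C. Lytic HiBiT luminescence, background-subtracted, normalized to DMSO; 4-parameter fit gives DC50, Emax (residual protein) and IP (inflection point).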

[1] = A375.10 cells, BRAF V600E, 2 hours, inflection point, read-out: HiBiT-Degradation A375.10 BRAF 2 hours IP
[2] = A375.10 cells, BRAF V600E, 2 hours, read-out: HiBiT-Degradation A375.10 BRAF 2 hours DC50
[3] = A375.10 cells, BRAF V600E, 2 hours, residual protein remaining, read-out: HiBiT-Degradation A375.10 BRAF 2 hours Emax
[4] = A375.10 cells, BRAF V600E, 2 hours, residual protein remaining
[5] = A375.10 cells, HiBiT, BRAF V600E, 24 hours, read-out: HiBiT-Degradation A375.10 BRAF 24 hours DC50
[6] = A375.10 cells, HiBiT, BRAF V600E, 24 hours, read-out: HiBiT-Degradation A375.10 BRAF 24 hours IP
[7] = A375.10 cells, HiBiT, BRAF V600E, 24 hours, read-out: HiBiT-Degradation A375.10 BRAF 24 hours Emax
[8] = read-out: HiBiT-Degradation A375.10 BRAF 2 hours DC50, A375.10 cells, BRAF V600E, 2 hours

T1 sequence (P15056 whole entry V600E): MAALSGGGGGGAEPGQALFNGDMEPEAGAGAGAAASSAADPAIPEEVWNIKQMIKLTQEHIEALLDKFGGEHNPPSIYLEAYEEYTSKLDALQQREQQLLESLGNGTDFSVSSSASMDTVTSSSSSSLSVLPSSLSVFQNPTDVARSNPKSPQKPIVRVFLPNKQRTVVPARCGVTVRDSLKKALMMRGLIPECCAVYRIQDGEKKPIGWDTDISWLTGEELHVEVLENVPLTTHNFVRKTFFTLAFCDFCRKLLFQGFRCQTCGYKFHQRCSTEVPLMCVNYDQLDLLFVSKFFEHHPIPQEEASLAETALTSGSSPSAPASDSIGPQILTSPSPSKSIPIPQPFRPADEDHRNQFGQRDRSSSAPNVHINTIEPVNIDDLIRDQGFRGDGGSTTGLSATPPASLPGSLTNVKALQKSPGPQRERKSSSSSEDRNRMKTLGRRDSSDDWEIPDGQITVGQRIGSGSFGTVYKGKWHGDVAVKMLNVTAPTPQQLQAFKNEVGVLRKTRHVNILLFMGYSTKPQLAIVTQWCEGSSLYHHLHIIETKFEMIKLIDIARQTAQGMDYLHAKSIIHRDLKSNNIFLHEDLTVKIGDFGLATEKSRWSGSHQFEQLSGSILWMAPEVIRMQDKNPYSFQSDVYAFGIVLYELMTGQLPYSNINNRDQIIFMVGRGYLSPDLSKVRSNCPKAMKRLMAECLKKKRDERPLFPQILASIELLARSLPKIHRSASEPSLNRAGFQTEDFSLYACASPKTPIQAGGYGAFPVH
T1 sequence (Q96SW2 whole entry): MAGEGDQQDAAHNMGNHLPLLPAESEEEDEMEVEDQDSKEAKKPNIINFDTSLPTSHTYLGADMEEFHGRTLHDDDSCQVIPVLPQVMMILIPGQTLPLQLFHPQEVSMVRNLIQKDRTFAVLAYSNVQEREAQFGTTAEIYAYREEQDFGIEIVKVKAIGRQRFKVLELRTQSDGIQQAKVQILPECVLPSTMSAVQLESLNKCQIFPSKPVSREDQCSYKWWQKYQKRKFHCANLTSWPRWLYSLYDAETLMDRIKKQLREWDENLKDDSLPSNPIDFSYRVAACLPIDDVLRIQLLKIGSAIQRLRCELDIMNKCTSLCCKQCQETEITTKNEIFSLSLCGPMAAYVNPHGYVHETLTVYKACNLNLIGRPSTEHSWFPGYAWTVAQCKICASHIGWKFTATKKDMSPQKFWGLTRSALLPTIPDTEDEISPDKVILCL
T1 sequence (Q16531 whole entry partner): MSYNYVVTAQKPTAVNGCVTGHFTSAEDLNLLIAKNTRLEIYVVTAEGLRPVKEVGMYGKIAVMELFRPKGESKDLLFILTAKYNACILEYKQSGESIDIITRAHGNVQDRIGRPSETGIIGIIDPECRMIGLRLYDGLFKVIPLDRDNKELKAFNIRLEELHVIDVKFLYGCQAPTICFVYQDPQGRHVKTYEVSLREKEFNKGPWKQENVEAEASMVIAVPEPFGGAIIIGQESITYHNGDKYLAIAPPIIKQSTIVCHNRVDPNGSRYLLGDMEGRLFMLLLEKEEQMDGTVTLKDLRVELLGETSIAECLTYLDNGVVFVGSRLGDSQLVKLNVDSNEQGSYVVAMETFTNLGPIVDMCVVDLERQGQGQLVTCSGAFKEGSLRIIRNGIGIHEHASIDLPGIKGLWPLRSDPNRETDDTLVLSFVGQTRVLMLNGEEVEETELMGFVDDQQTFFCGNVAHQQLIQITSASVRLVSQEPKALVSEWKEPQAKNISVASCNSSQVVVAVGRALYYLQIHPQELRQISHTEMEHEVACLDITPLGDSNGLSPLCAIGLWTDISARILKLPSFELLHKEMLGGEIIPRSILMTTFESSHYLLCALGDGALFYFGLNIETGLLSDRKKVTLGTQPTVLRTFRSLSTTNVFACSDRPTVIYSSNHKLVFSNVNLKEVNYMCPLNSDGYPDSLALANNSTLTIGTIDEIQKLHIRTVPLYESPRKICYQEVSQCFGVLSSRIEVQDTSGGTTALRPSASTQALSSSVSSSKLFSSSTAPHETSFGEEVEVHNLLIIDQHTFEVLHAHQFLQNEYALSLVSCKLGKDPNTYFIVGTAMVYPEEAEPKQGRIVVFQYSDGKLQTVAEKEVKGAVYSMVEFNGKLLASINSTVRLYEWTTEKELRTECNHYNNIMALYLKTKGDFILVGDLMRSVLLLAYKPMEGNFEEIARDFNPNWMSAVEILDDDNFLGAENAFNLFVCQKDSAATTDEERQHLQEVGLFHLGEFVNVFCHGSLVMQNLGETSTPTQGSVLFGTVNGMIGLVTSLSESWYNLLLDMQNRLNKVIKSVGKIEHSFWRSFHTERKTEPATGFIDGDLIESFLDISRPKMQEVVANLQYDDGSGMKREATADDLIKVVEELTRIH

SMILES	GI50 (A375-NRAS^Q61K cells) [nM]	Emax (A375-NRAS^Q61K cells; Homo sapiens, 96 h) [%]	DC50 (BRAF V600E; [1]) [nM]	DC50 (BRAF V600E; [2]) [nM]	Emax (BRAF V600E; [3]) [%]	GI50 (A375-NRAS^Q61K cells; Homo sapiens, 96 h) [nM]	further results
CCN(C)S(=O)(=O)Nc1ccc(F)c(Oc2ccc3ncc(OCC4(O)CCN(C5CCC(c6cc7c(cc6F)c(N6CCC(=O)NC6=O)nn7C)CC5)CC4)nc3c2)c1C#N (single isomer, unassigned) [Compound 195, 7-[2-cyano-3-[[ethyl(methyl)sulfamoyl]amino]-6-fluoro-phenoxy]-2-[[1-[4-[3-(2,4-dioxohexahydropyrimidin-1-yl)-5-fluoro-1-methyl-indazol-6-yl]cyclohexyl]-4-hydroxy-4-piperidyl]methoxy]quinoxaline]	> 10000	< 50	< 1000	> 10000	50 to 90		
CC(C)S(=O)(=O)Nc1ccc(F)c(Oc2ccc3ncn(C4CC5(CCN(C6CCC(c7cc8c(cc7F)c(N7CCC(=O)NC7=O)nn8C)CC6)CC5)C4)c(=O)c3c2)c1C#N (single isomer, unassigned) [Compound 96, N-[2-cyano-3-[3-[7-[4-[3-(2,4-dioxohexahydropyrimidin-1-yl)-5-fluoro-1-methyl-indazol-6-yl]cyclohexyl]-7-azaspiro[3.5]nonan-2-yl]-4-oxo-quinazolin-6-yl]oxy-4-fluoro-phenyl]propane-2-sulfonamide]	< 1000		< 1000	< 1000			HiBiT-Degradation A375.10 BRAF 2 hours Emax (BRAF V600E; [4]): *** (<=50%); DC50 (BRAF V600E; A375.10 cells, BRAF V600E, 6 hours, inflection point, read-out: HiBiT-Degradation A375.10 BRAF 6 hours IP): < 1000 nM; DC50 (BRAF V600E; A375.10 cells, BRAF V600E, 6 hours, read-out: HiBiT-Degradation A375.10 BRAF 6 hours DC50): < 1000 nM; HiBiT-Degradation A375.10 BRAF 6 hours Emax (BRAF V600E; A375.10 cells, BRAF V600E, 6 hours, residual protein remaining): *** (<=50%); HiBiT-Degradation A375.10 BRAF 24 hours Emax (BRAF V600E; A375.10 cells, HiBiT, BRAF V600E, 24 hours): *** (<=50%); DC50 (BRAF V600E; [5]): < 1000 nM; DC50 (BRAF V600E; [6]): < 1000 nM
CCN(C)S(=O)(=O)Nc1ccc(F)c(Oc2ccc3ncc(CCC4CCN(C5CCC(c6cc7c(cc6F)c(N6CCC(=O)NC6=O)nn7C)CC5)CC4)nc3c2)c1C#N (single isomer, unassigned) [Compound 128, 7-[2-cyano-3-[[ethyl(methyl)sulfamoyl]amino]-6-fluoro-phenoxy]-2-[2-[1-[4-[3-(2,4-dioxohexahydropyrimidin-1-yl)-5-fluoro-1-methyl-indazol-6-yl]cyclohexyl]-4-piperidyl]ethyl]quinoxaline]	> 10000	50 to 90	< 1000	> 10000	50 to 90		
CCN(C)S(=O)(=O)Nc1ccc(F)c(Oc2ccc3ncn([C@H]4CO[C@@]5(CCN(C6CCC(c7cc8c(cc7F)c(N7CCC(=O)NC7=O)nn8C)CC6)C5)C4)c(=O)c3c2)c1C#N (single isomer, unassigned) [Compound 292]		50 to 90	< 1000	< 1000	< 50	< 1000	DC50 (BRAF V600E; [5]): < 1000 nM; Emax (BRAF V600E; [7]): < 50%; DC50 (BRAF V600E; [6]): < 1000 nM
Cn1nc(N2CCC(=O)NC2=O)c2cc(F)c(N3CC4(CC(N5CCC6(CC5)CC(n5cnc7ccc(Oc8c(F)ccc(NS(=O)(=O)C9CCOCC9)c8C#N)cc7c5=O)C6)C4)C3)cc21 [Compound 263, N-[2-cyano-3-[3-[7-[2-[3-(2,4-dioxohexahydropyrimidin-1-yl)-5-fluoro-1-methyl-indazol-6-yl]-2-azaspiro[3.3]heptan-6-yl]-7-azaspiro[3.5]nonan-2-yl]-4-oxo-quinazolin-6-yl]oxy-4-fluoro-phenyl]tetrahydropyran-4-sulfonamide]		50 to 90			< 50	> 10000	DC50 (BRAF V600E; [8]): < 1000 nM; DC50 (BRAF V600E; read-out: HiBiT-Degradation A375.10 BRAF 2 hours IP, A375.10 cells, BRAF V600E, 2 hours, inflection point): < 1000 nM
CCN(C)S(=O)(=O)Nc1ccc(F)c(Oc2ccc3ncn([C@@H]4COC5(CCN(C6CCC(c7ccc(NC8CCC(=O)NC8=O)cc7F)CC6)CC5)C4)c(=O)c3c2F)c1C#N (single isomer, unassigned) [Compound 53]	1000 to 10000		< 1000	< 1000			CTGlo A375.11 96 hours Emax (A375-NRAS^Q61K cells): ** (<90% and >50%); HiBiT-Degradation A375.10 BRAF 2 hours Emax (BRAF V600E; [4]): *** (<=50%)
CCN(C)S(=O)(=O)Nc1ccc(F)c(Oc2ccc3ncc([C@@H]4COC5(CCN(C6CCC(c7cc8c(cc7F)c(N7CCC(=O)NC7=O)nn8C)CC6F)CC5)C4)nc3c2)c1C#N (single isomer, unassigned) [Compound 163]		50 to 90	< 1000	< 1000		1000 to 10000	Emax (BRAF V600E; read-out: HiBiT-Degradation A375.10 BRAF 2 hours Emax, A375.10 cells, BRAF V600E, 2 hours, residual protein remaining): < 50%
CO[C@H]1CCN(S(=O)(=O)Nc2ccc(F)c(Oc3ccc4ncc(C5CC6(CCN(C7CCC(c8cc9c(cc8F)c(N8CCC(=O)NC8=O)nn9C)CC7)CC6)C5)nc4c3)c2C#N)C1 (single isomer, unassigned) [Compound 275]	> 10000	50 to 90			50 to 90		HiBiT-Degradation A375.10 BRAF 2 hours IP (BRAF V600E; A375.10 cells, BRAF V600E, 2 hours, inflection point): *** (<=1 μM); DC50 (BRAF V600E; [8]): < 1000 nM
CCN(C)S(=O)(=O)Nc1ccc(F)c(Oc2ccc3ncc(CC4CCN(C5CCC(c6ccc(NC7CCC(=O)NC7=O)cc6F)CC5)CC4)nc3c2)c1C#N (single isomer, unassigned) [Compound 147, 7-[2-cyano-3-[[ethyl(methyl)sulfamoyl]amino]-6-fluoro-phenoxy]-2-[[1-[4-[4-[(2,6-dioxo-3-piperidyl)amino]-2-fluoro-phenyl]cyclohexyl]-4-piperidyl]methyl]quinoxaline]		50 to 90	< 1000	> 10000	50 to 90	> 10000	
CCN(C)S(=O)(=O)Nc1ccc(F)c(C(=O)c2ccc3ncn(C4CC5(CCN(C6CCC(c7cc8c(cc7F)c(N7CCC(=O)NC7=O)nn8C)CC6)CC5)C4)c(=O)c3c2)c1F (single isomer, unassigned) [Compound 183, 3-[7-[4-[3-(2,4-dioxohexahydropyrimidin-1-yl)-5-fluoro-1-methyl-indazol-6-yl]cyclohexyl]-7-azaspiro[3.5]nonan-2-yl]-6-[3-[[ethyl(methyl)sulfamoyl]amino]-2,6-difluoro-benzoyl]-4-oxo-quinazoline]	1000 to 10000		< 1000	< 1000			CTGlo A375.11 96 hours Emax (A375-NRAS^Q61K cells): ** (<90% and >50%); HiBiT-Degradation A375.10 BRAF 2 hours Emax (BRAF V600E; [4]): *** (<=50%)
CCN(C)S(=O)(=O)Nc1ccc(F)c(Oc2ccc3ncn([C@H]4COC5(C4)CN(C4CCN(c6cc7c(cc6F)c(N6CCC(=O)NC6=O)nn7C)CC4)C5)c(=O)c3c2)c1C#N [Compound 309, (7R)-7-[6-[2-cyano-3-[[ethyl(methyl)sulfamoyl]amino]-6-fluoro-phenoxy]-4-oxo-quinazolin-3-yl]-2-[1-[3-(2,4-dioxohexahydropyrimidin-1-yl)-5-fluoro-1-methyl-indazol-6-yl]-4-piperidyl]-5-oxa-2-azaspiro[3.4]octane]		50 to 90	< 1000	> 10000	50 to 90	> 10000	DC50 (BRAF V600E; [5]): < 1000 nM; Emax (BRAF V600E; [7]): < 50%; DC50 (BRAF V600E; [6]): < 1000 nM
CCN(C)S(=O)(=O)Nc1ccc(F)c(C(=O)c2ccc3ncn(C4CC5(CCN(C6CCC(c7ccc(NC8CCC(=O)NC8=O)cc7F)CC6)CC5)C4)c(=O)c3c2)c1F (single isomer, unassigned) [Compound 199, 3-[7-[4-[4-[(2,6-dioxo-3-piperidyl)amino]-2-fluoro-phenyl]cyclohexyl]-7-azaspiro[3.5]nonan-2-yl]-6-[3-[[ethyl(methyl)sulfamoyl]amino]-2,6-difluoro-benzoyl]-4-oxo-quinazoline]		50 to 90	< 1000	< 1000	< 50	1000 to 10000	
